Test results from patent US20110251189A1, “HYPOXIA TARGETED COMPOUNDS FOR CANCER DIAGNOSIS AND THERAPY” (priority 2008, published 2011).
Like-named read-outs stand apart in the source and are kept apart here.

Legend:
HepG2 cells [1] = experiment: Survival (MTT) cytotoxicity assay in HepG2 cells under normoxic or hypoxic conditions; format: cell-based; details: for IC50: Homo sapiens, MTT assay; for toxicity in hypoxic versus normoxic exposure: transient exposure to hypoxic conditions
Method: Cell Culture and Cytotoxicity Assays. HepG2 cells (passage 2 from frozen stock) were cultured in RPMI 1640 containing 10% FBS. The tests were performed in 96-well plates with stock cells split equally into duplicate plates—one for normoxic and the other for hypoxic conditions. The drug(s) or vehicle (0.1% DMSO) was applied to the cells in log-exponential growth phase under normoxic conditions (5% CO2; 37 C) for 48 hours or under normoxic conditions (22 hr) followed by 2 hr hypoxic conditions (1% O2, 5% CO2, 94% N2 at 37° C.) then followed by reoxygenation for 24 hrs. For the hypoxia experiments, a glove chamber with two-way pressure value and one-way N2 inflow was used. Hypoxia conditions were met using methylene blue dye indicator (i.e. 0.015% methylene blue, 6% dextrose, 6 mM NaOH) which correlated with the O2 pressure in the glove box when measured continuously with a Clark-type electrode.^13
At 48 hrs, a tetrazolium component (MTT) assay (Promega, Madison, Wis.; Cell Titer 96 Non-Radioactive Cell Proliferation Assay) was performed following an established protocol in the laboratory. Since these assays depend on mitochondrial function, which may be affected by the state of oxygenation, clonogenic assays to verify survival function were also performed. It is important to note that the data presented for the MTT assay normalizes the OD595 for the drug treated wells (minus background) to its own vehicle treated well(s) under either normoxic or hypoxic conditions. These values are then plotted as a percentage (×100%) surviving 48 hrs of drug(s) or vehicle treatment under the said condition. These analyses have also been performed previously for other hypoxia studies.^14,15

HepG2 cells [2] = experiment: HepG2 clonogenic assay (colony count) under normoxic or hypoxic conditions; format: cell-based; details: for cells dead / colonies dead: hypoxic conditions; for cells dead / cells dead compared with controls: 50 μM; for cells dead: p<0.00001 vs control treated hypoxic conditions; for colonies dead / colonies alive relative to controls: ~10 μM; for colonies dead: p<0.001 vs control treated cells; for cells dead compared with controls / colonies alive relative to controls: normoxic cells; for colonies alive relative to controls: FIG. 5
Method: In the HepG2 clonogenic assays, 3.5×10^3 per well were seeded in 6-well plates using RPMI1640 and 10% FBS. After 24 hrs of growth at 37° C., the cells were exposed to vehicle or drug(s). After 10 days incubation with drug(s) or control, the wells were washed with PBS twice, then fixed in 10% acetic acid for 10 min, then stained with crystal violet for 10 min, and finally rinsed with distilled water at room temperature. The colonies (>50 μm likely representing >50 cells) were then visually counted in randomly chosen 1-mm×1-mm grid repeated three times. Statistical analyses of the mean number of colonies were performed by using the Mann-Whitney t test, with significant differences established as P<0.05 as previously published by the laboratory.^16 For the hypoxia conditions, after 24 hr growth in normoxic conditions as above, the vehicle or drug(s) treated cells were exposed to hypoxic environment (1% O2, 5% CO2, 94% N2 at 37° C.) for 5 hrs, followed by re-oxygenation (5% CO2; 37° C.) for the remaining 10 days.

[3] = 22 hr normoxia, 2 hr hypoxia (1% O2), reoxygenation 24 hrs, read-out: IC50 (hypoxia)
[4] = normoxic conditions 48 hours, read-out: IC50 (normoxia)

| Structure (SMILES) | IC50 (HepG2 cells [1]; [3]) | IC50 (HepG2 cells [1]; [4]) | toxicity in hypoxic versus normoxic exposure (HepG2 cells [1]) | cells dead (HepG2 cells [2]) | colonies dead (HepG2 cells [2]) | cells dead compared with controls (HepG2 cells [2]) | colonies alive relative to controls (HepG2 cells [2]) |
| --- | --- | --- | --- | --- | --- | --- | --- |
| Cc1ccc2c(c1)N=C(c1ccc(Cl)cc1)CO2 [Compound B47.4] | 87 ± 1.8 µM | > 600 µM | – | – | – | – | – |
| c1ccc(C2=Nc3ccccc3OC2)cc1 [Compound 3] | 10.8 ± 1.4 µM | 87 ± 1.3 µM | significantly more toxic to hypoxic exposure than to normoxic exposure | ~98% | ~71% | ~12% | ~105% |
| Clc1ccc2c(c1)N=C(c1ccccc1)CO2 [Compound 4] | 30 ± 2.4 µM | 78 ± 1.2 µM | – | – | – | – | – |
| O=[N+]([O-])c1ccc2c(c1)N=C(c1ccc(Cl)cc1)CO2 [Compound 7] | 20 ± 1.2 µM | 78 ± 1.4 µM | significantly more toxic to hypoxic exposure than to normoxic exposure | ~83% | ~28% | ~11% | ~110% |
| Clc1ccc(C2=Nc3ccc(Cl)cc3OC2)cc1 [Compound B47.2] | 28 ± 1.6 µM | 88 ± 2.4 µM | – | – | – | – | – |
